From patent publication EP2582674B1 (Cymabay Therapeutics, Inc., priority 2010, dated 2011)

Biological target: T1, human GPR120 (Homo sapiens, UniProt Q5NUL3)
T1 construct: host or cells: HEK293 cells co-expressing Gqi5
T1 sequence (Q5NUL3 1-361): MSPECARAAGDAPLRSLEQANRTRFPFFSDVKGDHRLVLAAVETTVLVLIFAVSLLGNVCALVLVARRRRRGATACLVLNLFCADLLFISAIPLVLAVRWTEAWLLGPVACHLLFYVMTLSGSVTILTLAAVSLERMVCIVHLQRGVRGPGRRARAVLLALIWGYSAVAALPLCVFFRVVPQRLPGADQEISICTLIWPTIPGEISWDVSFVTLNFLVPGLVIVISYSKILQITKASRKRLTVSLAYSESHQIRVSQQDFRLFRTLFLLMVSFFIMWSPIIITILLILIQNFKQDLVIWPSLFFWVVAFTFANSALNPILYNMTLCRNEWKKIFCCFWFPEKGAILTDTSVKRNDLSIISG
Test: Intracellular Ca2+ assay in human GPR120 stable cell line (FLIPR Calcium 4 dye, Flexstation)
Format: cell-based
Conditions: % activity at 2.5 µM compared to the maximal activity of the compound of Example 25 at 2.5 µM (=100%); HEK293 cells co-expressing Gqi5
Procedure: Human GPR120 stable cell line was purchased from Multispan Inc (26219 Eden Landing Road, Hayward, CA94545). This GPR120 cell line was generated in HEK293 cells co-expressing Gqi5. In this cell line, the Flag epitope tag (DYKDDDDK) was fused to the amino terminus of human GPR120 protein.
The concentration of intracellular Ca^2+ was measured as described below. Human GPR120 cells were plated in 96 well plates (Poly-D-Lysine coated black/clear Plate, Greiner Bio-One) at 70,000 cells per well and cultured overnight in conditions of 37°C and 5% CO2. A Ca^2+ assay dye stock solution was prepared by adding 10 mL of assay buffer (HBSS/20mM HEPES, pH 7.4) to FLIPR Calcium 4 Assay Bulk Kit (Molecular Devices). The 10 mL of Ca^2+ assay dye solution was prepared by further diluting 0.5 mL of Ca^2+ assay dye stock solution with 10 mL of assay buffer. The medium of the cells was removed and immediately 100 µL of the Ca^2+ assay dye solution was dispensed into each well followed by incubation at 37°C and 5% CO2 for 50 minutes to incorporate the Ca^2+ dye into the cells. The cell plate was then placed in the Flexstation (Molecular Devices) for 20 minutes at 37°C. Compounds were dissolved in 100% DMSO and diluted to desired concentrations with assay buffer and placed in the Flexstation simultaneously with the cell plate for 20 minute incubation at 37°C prior to reading. Fluorescence intensity was measured immediately following compound addition (25 µL/well) on the Flexstation at an excitation wavelength of 485 nm and an emission wavelength of 525 with 515 nm auto cutoff. The resulting increase in fluorescence intensities corresponds to increases in intracellular Ca^2+ levels.
Compounds were dissolved in 100% DMSO to a concentration of 20 mM to provide stock solutions. To determine activity against human GPR120, compounds were added with human GPR120 stably expressing cells (described above), at eight desired concentrations ranging from 0.00001 to 20 µM, in 96 well plates and fluorescence intensities were measured for 90 seconds with 2-second intervals. An EC50 value (concentration of the GPR120 agonist where 50% of the agonist's maximal activity is observed) was calculated using the changes (Max-Min) of fluorescence intensity.
To determine percent activity for a tested compound, the fluorescence intensity value obtained at a particular concentration were compared to the maximal fluorescence intensity value obtained for reference compound GW9508 (4-[[(3-phenoxyphenyl)methyl]amino]benzene propanoic acid; British Journal of Pharmacology 2006 148, 619-628) or the compound of Example 25. When GW9508 was used as the reference compound, the maximal activity of GW9508 at 6.7µM was designated as 100% activity. When the compound of Example 25 was used as the reference compound, the maximal activity of the compound of Example 25 at 2.5 µM was designated as 100% activity. Typically, the GW9508 activity reached a maximum at a concentration of approximately 6.7 µM and typically the compound of Example 25 reached a maximum activity at approximately 2.5µM. […]

% Activity (Ex. 25 Reference Compound) [%]	SMILES
130.66	CC1(C)Cc2cc(F)cc(COc3c(F)cc(CC4CC4C(=O)O)cc3F)c2O1 (single isomer, unassigned) [Example 184B, 2-(3,5-difluoro-4-((5-fluoro-2,2-dimethyl-2,3-dihydrobenzofuran-7-yl)methoxy)benzyl)cyclopropanecarboxylic acid]

Same assay, conditions: % activity at 2.5 µM compared to the maximal activity of the compound of Example 25 at 2.5 µM (=100%); HEK293 cells co-expressing Gqi5; read-out: % Activity (Ex. 25 Reference Compound)

SMILES	activity at 2.5 µM [%]
CC1(C)Cc2cc(F)cc(CCc3ccc(OCC(=O)O)cc3)c2O1 [Example 70, 2-(4-(2-(5-fluoro-2,2-dimethyl-2,3-dihydrobenzofuran-7-yl)ethyl)phenoxy)acetic acid]	118

Same assay, conditions: HEK293, % activity at 2.5 µM compared to the maximal activity of the compound of Example 25 at 2.5 µM (=100%); HEK293 cells co-expressing Gqi5; read-out: % Activity (Ex. 25 Reference Compound)

SMILES	activity at 2.5 µM [%]
CC(Cc1ccc(OCc2cc(F)cc3c2OC2(CCCC2)C3)cc1)C(=O)O (stereo not drawn) [Example 162, 3-(4-((5-fluoro-3H-spiro[benzofuran-2,1'-cyclopentane]-7-yl)methoxy)phenyl)-2-methylpropanoic acid]	154
Cc1cc2cccc(COc3ccc4c(c3)CCC4CC(=O)O)c2s1 (stereo not drawn) [Example 152, 2-(5-((2-methylbenzo[b]thiophen-7-yl)methoxy)-2,3-dihydro-1H-inden-1-yl)acetic acid]	83.8
CC1(C)Cc2cc(Cl)cc(COc3ccc(SCC(=O)O)cc3)c2O1 [Example 59, 2-((4-((5-chloro-2,2-dimethyl-2,3-dihydrobenzofuran-7-yl)methoxy)phenyl)thio)-acetic acid]	118
CC(Cc1ccc(OCc2cc(F)cc3c2OC(C)(C)C3)cc1)C(=O)NO (stereo not drawn) [Example 264, 3-(4-((5-fluoro-2,2-dimethyl-2,3-dihydrobenzofuran-7-yl)methoxy)phenyl)-N-hydroxy-2-methylpropanamide]	110
CC(C)Oc1cc(OCc2cc(Cl)cc3c2OC(C)(C)C3)ccc1CCC(=O)O [Example 116, 3-(4-((5-chloro-2,2-dimethyl-2,3-dihydrobenzofuran-7-yl)methoxy)-2-isopropoxyphenyl)propanoic acid]	146
CC(Cc1ccc(OCc2cc(-c3ccc(Cl)cc3)cc3c2OC(C)(C)C3)cc1)C(=O)O (stereo not drawn) [Example 82, 3-(4-((5-(4-chlorophenyl)-2,2-dimethyl-2,3-dihydrobenzofuran-7-yl)methoxy)phenyl)-2-methylpropanoic acid]	24
CC(Cc1ccc(OCc2cc(Cl)cc3c2OCC3(C)C)cc1)C(=O)O (stereo not drawn) [Example 148, 3-(4-((5-chloro-3,3-dimethyl-2,3-dihydrobenzofuran-7-yl)methoxy)phenyl)-2-methylpropanoic acid]	114
CC1(C)Cc2cc(F)cc(COc3ccc(CCC(=O)O)c4c3CCC4)c2O1 [Example 63, 3-(7-((5-fluoro-2,2-dimethyl-2,3-dihydrobenzofuran-7-yl)methoxy)-2,3-dihydro-1H-inden-4-yl)propanoic acid]	95
CC(Cc1ccc(NCc2cc(F)cc3c2OC(C)(C)C3)cc1)C(=O)O (stereo not drawn) [Example 67, 3-(4-(((5-fluoro-2,2-dimethyl-2,3-dihydrobenzofuran-7-yl)methyl)amino)phenyl)-2-methylpropanoic acid]	142
[2H]C([2H])(C(=O)O)C([2H])([2H])c1ccc(OCc2cc(Cl)cc3c2OC(C)(C)C3)c(F)c1 [Example 241, 3-(4-((5-chloro-2,2-dimethyl-2,3-dihydrobenzofuran-7-yl)methoxy)-3-fluorophenyl)-2,2,3,3-tetradeuteriopropanoic acid]	160
CC1(C)Cc2cc(Cl)cc(COc3ccc4c(c3)CC(C(=O)O)C4)c2O1 (stereo not drawn) [Example 112, 5-((5-chloro-2,2-dimethyl-2,3-dihydrobenzofuran-7-yl)methoxy)-2,3-dihydro-1H-indene-2-carboxylic acid]	115

The remaining lines, values ahead:

activity at 2.5 µM [%]	SMILES
99	CC(CCc1ccc(OCc2cc(F)cc3c2OC(C)(C)C3)cc1)C(=O)O (stereo not drawn) [Example 171, 4-(4-((5-fluoro-2,2-dimethyl-2,3-dihydrobenzofuran-7-yl)methoxy)phenyl)-2-methylbutanoic acid]
86.2	[2H]C([2H])(Oc1ccc(CC(C)C(=O)O)cc1F)c1cc(F)cc2c1OC(C)(C)C2 (stereo not drawn) [Example 230, 3-(4-(dideuterio(5-fluoro-2,2-dimethyl-2,3-dihydrobenzofuran-7-yl)methoxy)-3-fluorophenyl)-2-methylpropanoic acid]
139	[2H]C1([2H])c2cc(Cl)cc(COc3ccc(CC(C)C(=O)O)cc3C(F)(F)F)c2OC1(C)C (stereo not drawn) [Example 147, 3-(4-((3,3-dideuterio-5-chloro-2,2-dimethyl-2,3-dihydrobenzofuran-7-yl)methoxy)-3-(trifluoromethyl)phenyl)-2-methylpropanoic acid]

Same assay, conditions: HEK293, % activity at 5 µM compared to the maximal activity of GW9508 at 6.7 µM (=100%); HEK293 cells co-expressing Gqi5; read-out: %Activity (GW9508 Reference Compound)

SMILES	activity at 5 µM [%]
CC1(C)Cc2c(C(F)(F)F)ccc(COc3c(F)cc(C4CC4C(=O)O)cc3F)c2O1 (stereo not drawn) [Example 31, 2-(4-((2,2-dimethyl-4-(trifluoromethyl)-2,3-dihydrobenzofuran-7-yl)methoxy)-3,5-difluorophenyl)cyclopropanecarboxylic acid]	150
CC1Cc2cccc(COc3c(F)cc(CCC(=O)O)cc3F)c2O1 (stereo not drawn) [Example 20]	138
CC1(C)Cc2cc(F)cc(COc3c(F)cc(C4CC4C(=O)O)cc3F)c2O1 (stereo not drawn) [Example 19, 2-(3,5-difluoro-4-((5-fluoro-2,2-dimethyl-2,3-dihydrobenzofuran-7-yl)methoxy)phenyl)cyclopropanecarboxylic acid]	126

Next, values leading:

activity at 5 µM [%]	SMILES
149	Cc1cc(COc2c(F)cc(CC(C)C(=O)O)cc2F)c2c(c1)CC(C)(C)O2 (stereo not drawn) [Example 5, 3-(3,5-difluoro-4-((2,2,5-trimethyl-2,3-dihydrobenzofuran-7-yl)methoxy)phenyl)-2-methylpropanoic acid]
134	CC(Cc1ccc(OCc2ccc(F)c3c2OC(C)(C)C3)c(F)c1)C(=O)O (stereo not drawn) [Example 29, 3-(3-fluoro-4-((4-fluoro-2,2-dimethyl-2,3-dihydrobenzofuran-7-yl)methoxy)phenyl)-2-methylpropanoic acid]
130	CC(Cc1cc(F)c(OCc2cc(F)cc3c2OC(C)(C)C3)c(F)c1)C(=O)O (stereo not drawn) [Example 18, 3-(3,5-difluoro-4-((5-fluoro-2,2-dimethyl-2,3-dihydrobenzofuran-7-yl)methoxy)phenyl)-2-methylpropanoic acid]
144	CC1(C)Cc2c(F)ccc(COc3c(F)cc(C4CC4C(=O)O)cc3F)c2O1 (stereo not drawn) [Example 27, 2-(3,5-difluoro-4-((4-fluoro-2,2-dimethyl-2,3-dihydrobenzofuran-7-yl)methoxy)phenyl)cyclopropanecarboxylic acid]
110	CC(Cc1cc(F)c(OCc2ccc(F)c3c2OC(C)(C)C3)c(F)c1)C(=O)O (stereo not drawn) [Example 28, 3-(3,5-difluoro-4-((4-fluoro-2,2-dimethyl-2,3-dihydrobenzofuran-7-yl)methoxy)phenyl)-2-methylpropanoic acid]
177	CC(Cc1ccc(OCc2ccc(F)c3c2OC(C)(C)C3)cc1)C(=O)O (stereo not drawn) [Example 30, 3-(4-((4-fluoro-2,2-dimethyl-2,3-dihydrobenzofuran-7-yl)methoxy)phenyl)-2-methylpropanoic acid]

Same assay, conditions: eight concentrations from 0.00001 to 20 µM; changes (Max-Min) of fluorescence intensity

EC50 [µM]	SMILES
1 to 10	CC(CCc1ccc(OCc2cc(F)cc3c2OC(C)(C)C3)cc1)C(=O)O (stereo not drawn) [Example 171, 4-(4-((5-fluoro-2,2-dimethyl-2,3-dihydrobenzofuran-7-yl)methoxy)phenyl)-2-methylbutanoic acid]
1 to 10	CC(Cc1ccc(OCc2cc(-c3ccc(Cl)cc3)cc3c2OC(C)(C)C3)cc1)C(=O)O (stereo not drawn) [Example 82, 3-(4-((5-(4-chlorophenyl)-2,2-dimethyl-2,3-dihydrobenzofuran-7-yl)methoxy)phenyl)-2-methylpropanoic acid]
